Laboratory results reported in patent publication US20050009158A1, “Process for enzymatically resolving an enantiomeric mixture of alpha-hydroxy acids” (priority 2003, published 2005).

Key:
[1] = target: T1, porcine pancreatic lipase (PPL) (Sus scrofa, UniProt P00591); test: PPL lipase catalyzed hydrolysis of HMB esters; format: biochemical; conditions: for HMB/HMB-ester ratio for PPL lipase catalyzed hydrolysis: ester 1 mM, PPL 120 mg, pH 7.2, approx. 25° C., 24 hours; for Enantioselectivity of hydrolysis: Free Acid (L/D) / Enantioselectivity of hydrolysis: Ester (L/D): lipase PPL; for Enantioselectivity of hydrolysis: Free Acid (L/D): chiral LC of HMB from bicarbonate layer; for Enantioselectivity of hydrolysis: Ester (L/D): unhydrolyzed ester, chiral LC after 6N HCl hydrolysis; for extent of ester hydrolysis (in words): PPL, RPLC
T1 sequence (P00591 1-450): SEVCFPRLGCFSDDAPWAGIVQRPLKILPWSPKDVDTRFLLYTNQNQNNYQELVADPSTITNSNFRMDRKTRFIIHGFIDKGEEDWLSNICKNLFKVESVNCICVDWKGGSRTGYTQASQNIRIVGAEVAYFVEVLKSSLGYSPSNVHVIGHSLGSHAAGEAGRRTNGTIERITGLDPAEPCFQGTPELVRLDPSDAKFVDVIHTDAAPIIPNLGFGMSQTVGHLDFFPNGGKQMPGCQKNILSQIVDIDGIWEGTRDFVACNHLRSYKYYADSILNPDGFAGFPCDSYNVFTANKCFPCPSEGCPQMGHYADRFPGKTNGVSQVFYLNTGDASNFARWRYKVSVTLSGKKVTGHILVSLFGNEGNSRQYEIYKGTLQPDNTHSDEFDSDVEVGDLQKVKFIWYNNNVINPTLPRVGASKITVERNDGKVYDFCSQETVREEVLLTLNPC
Method: In another lipase mediated hydrolysis, HMB-methyl ester (1 mM) was added to a 40 mL reaction vial along with water (12 mL), a 0.1 M phosphate buffer with a pH of 7.2 (2 mL) and PPL (120 mg).
(§1) The non-enzymatic hydrolysis and the lipase mediated hydrolysis reactions were each carried out at a constant temperature of approximately 25° C. with constant stirring over the course of a 24 hour period. During the course of reaction pH of the reaction mixture was maintained at 7.2. After the reaction was complete, the reaction solvents were removed from the reaction mixture with a rotary evaporator.
(§2) After each of the hydrolysis reactions, the dry hydrolysis reaction product containing the α-hydroxy acid of HMB was dissolved in ethanol (10 mL), a sample of the reaction product solution (1 mL) was taken and diluted with additional ethanol (9 mL) and the further diluted solution was filtered through a filter having a pore size of 2 μm (Model manufactured by Millipore Corp. of Bedford, Mass.). The filtered extract was then introduced into the liquid chromatograph and the free acid and residual ester were separated on a C-8 reverse phase liquid chromatography column of the type described above.
(§3) Ethanol was removed from the remaining product mixture by rotary evaporation and the α-hydroxy acid product was re-dissolved in ethyl acetate (5 mL). The solution containing the α-hydroxy acid product was transferred to a 15 mL centrifuge tube to which 1 M sodium bicarbonate (6 mL) was added after which the centrifuge tube was shaken for a period of about five minutes, thus forming an ethyl acetate layer containing HMB-methyl ester and a sodium bicarbonate layer containing D- and L-enantiomers of the α-hydroxy acid, HMB. These layers were then separated with a centrifuge and each of the separated layers were brought to near dryness with a rotary evaporator and the residue from the bicarbonate layer was dissolved in ethanol (5 mL) to form a solution which was filtered and analyzed for D- and L-enantiomers of HMB by chiral liquid chromatography in accordance with the method set forth below.
(§4) The dry residue from the ethyl acetate layer containing HMB-methyl ester was hydrolyzed with 6N HCl (2 mL) for a period of two hours to produce HMB which was solubilized in ethanol. The ethanol solutions were filtered and analyzed for D- and L-enantiomers of HMB by chiral liquid chromatography in accordance with the method set forth below.
(§5) Separation of the D- and L-forms of the α-hydroxy acid of HMB present in the sodium bicarbonate phase was carried out by liquid chromatography (LC) with a UV absorbance detector in tandem with electrospray ionization mass spectrometry in the negative mode (ESI(−)MS). […] The electrospray ionization mass spectrometer utilized was manufactured by Hitachi High Technologies (Model M-8000). The mobile phase composition consisted of 70% ammonium acetate buffer (pH 4, 30 mM) and 30% methanol. A macrocyclic antibiotic based column (Chirobiotic-TAG), manufactured by Advanced Separation Technologies, Inc., Whippany, N.J., was used for the chiral liquid chromatography.
As part of these investigations, HMB-butyl ester and HMB obtained from the hydrolysis were recovered from the reaction mixture through portioning in ethyl acetate and […] bicarbonate solution. The HMB acid was recovered from the bicarbonate solution; it was introduced into an enantioselective HPLC system. The recovered HMB-butyl ester was hydrolyzed with 6N HCl (chemically) and then introduced into the enantioselective HPLC system. Chromatograms of HMB enantiomers obtained after non-enzymatic and PPL catalyzed HMB-butyl ester hydrolysis are illustrated in FIGS. 7A-B respectively.

Candida rugosa lipase = Candida rugosa lipase catalyzed hydrolysis of HMB esters; format: biochemical; conditions: for HMB/HMB-ester ratio for Candida rugosa lipase catalyzed hydrolysis: ester 1 mM, lipase 120 mg, pH 7.2, approx. 25° C., 24 hours; for extent of ester hydrolysis (in words): Candida rugosa lipase, RPLC
Method: In another lipase mediated hydrolysis, HMB-methyl ester (1 mM) was added to a 40 mL reaction vial along with water (12 mL), a 0.1 M phosphate buffer with a pH of 7.2 (2 mL) and Candida rugosa (120 mg).
as §1, §2, §3, §4, §5

[2] = Non-enzymatic hydrolysis of HMB esters in phosphate buffer; format: physicochemical; conditions: for HMB/HMB-ester ratio for non-enzyme catalyzed hydrolysis: ester 1 mM, phosphate buffer pH 7.2, approx. 25° C., 24 hours
Method: To carry out the hydrolysis of the ester, HMB-methyl ester (1 mM) was added to a 40 mL reaction vial along with water (12 mL) and a 0.1 M phosphate buffer having a pH of 7.2 (2 mL). The reaction was carried out at a constant temperature of, approximately 25° C. and constant stirring over a period of 24 hours. During the course of the reaction, the pH of the reaction mixture was maintained at 7.2. After the reaction was complete, the reaction solvents were removed from the reaction mixture with a rotary evaporator.
as §1, §2, §3, §4, §5

Aspergillus niger lipase = Aspergillus niger lipase catalyzed hydrolysis of HMB esters; format: biochemical; conditions: for HMB/HMB-ester ratio for Aspergillus niger lipase catalyzed hydrolysis: ester 1 mM, lipase 120 mg, pH 7.2, approx. 25° C., 24 hours; for extent of ester hydrolysis (in words): Aspergillus niger lipase, RPLC
Method: In one lipase mediated hydrolysis, HMB-methyl ester (1 mM) was added to a 40 mL reaction vial along with water (12 mL), a 0.1 M phosphate buffer with a pH of 7.2 (2 mL) and Aspergillus niger (120 mg).
as §1, §2, §3, §4, §5

[3] = target: T2, Novo 435 (Candida antarctica) lipase (Moesziomyces antarcticus, UniProt P41365); test: Novo 435 (Candida antarctica) lipase catalyzed hydrolysis of HMB esters; format: biochemical; conditions: for extent of ester hydrolysis (in words): Novo 435, RPLC; for HMB/HMB-ester ratio for Novo 435 (Candida antarctica) lipase catalyzed hydrolysis: ester 1 mM, immobilized lipase 6 mg, pH 7.2, approx. 25° C., 24 hours
T2 construct: purchased Novo (only as part of the product name) 435 (also given as 438)
Method: In another lipase mediated hydrolysis, HMB-methyl ester (1 mM) was added to a 40 mL reaction vial along with water (12 mL), a 0.1 M phosphate buffer with a pH of 7.2 (2 mL) which was contacted with an immobilized sample of Novo 438 (Candida antarctica) (6 mg).
as §1, §2

immobilized PPL = target: T3, immobilized PPL (Sus scrofa, UniProt P00591); test: Hydrolysis of HMB propyl ester using gel-bound (alginate-immobilized) PPL beads; format: biochemical, porcine; conditions: after a run of 3 hrs
T3 sequence (P00591 1-450): T1 sequence (P00591 1-450)
Method: Sodium alginate (500 mg), gelatin (300 mg) and water (9 ml) are introduced into and mixed in a 50 ml conical flask. The mix is then left undisturbed for 1 hour, after which the flask and its contents are autoclaved (120° C., 15 min.). The contents are then cooled at room temperature under continuous stirring. After the contents have cooled down, PPL (100 mg) in water (1 ml) is added to the flask and the contents stirred for further 15-20 min. Then glutaraldehyde (300 μl) is added to the flask contents and the mixture stirred for another 15 min. These contents are added drop-wise from a distance of around 10 cm by forcing them through the hypodermic needle in a 0.18M calcium chloride solution (2°-3° C.) . The gel breads solidify immediately upon contact with the calcium chloride solution, and after 30 min. are solidified. The solidified gel beads are washed 3-4 times with water to remove any loose enzyme from the surface.
The immobilized enzyme catalyst beads as prepared in the manner described in Example 6 were placed in a conical flask. […]
Reversed phase chromatography method was used for all the chromatograms set forth in the drawings. […] The reaction was monitored at 220 nm and gradient elution for the mobile phases used was 0 to 55% solvent B in 30 min.

[4] = Hydrolysis of HMB propyl ester with alginate beads without enzymes (control); format: physicochemical; conditions: water, 37° C., 2 hours and 3.30 hours
Method: Reversed phase chromatography method was used for all the chromatograms set forth in the drawings. The mobile phases chosen were water +0.1% trifluroacetic acid (TFA) (solvent A) and acetonitrile +0.1% TFA (solvent B). The column was maintained at 30° C. The reaction was monitored at 220 nm and gradient elution for the mobile phases used was 0 to 55% solvent B in 30 min.
The hydrolysis of HMBP was also checked using alginate beads without enzymes(CONTROL). The gel beads were placed in a conical flask of water (20 ml) and HMB propyl ester (240 mg) were added to it. The mixture was thereafter maintained at a temperature of 37° C. The chromatograms of FIGS. 15A and 15B are obtained for the product formed, for the same time constraints as before.

T2 sequence (P41365 26-342): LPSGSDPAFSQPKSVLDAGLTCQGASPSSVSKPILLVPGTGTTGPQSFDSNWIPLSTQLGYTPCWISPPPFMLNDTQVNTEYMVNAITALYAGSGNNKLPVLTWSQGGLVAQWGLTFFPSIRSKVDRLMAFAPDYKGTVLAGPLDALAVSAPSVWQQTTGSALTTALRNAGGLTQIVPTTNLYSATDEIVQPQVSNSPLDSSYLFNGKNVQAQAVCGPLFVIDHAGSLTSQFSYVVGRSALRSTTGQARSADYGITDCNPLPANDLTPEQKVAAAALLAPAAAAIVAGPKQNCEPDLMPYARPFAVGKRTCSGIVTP

SMILES | HMB/HMB-ester ratio for PPL lipase catalyzed hydrolysis [1] | Enantioselectivity of hydrolysis: Free Acid (L/D) [1] | Enantioselectivity of hydrolysis: Ester (L/D) [1] | HMB/HMB-ester ratio for Candida rugosa lipase catalyzed hydrolysis (Candida rugosa lipase) | Enantioselectivity of hydrolysis: Free Acid (L/D) (Candida rugosa lipase; lipase Candida rugosa, chiral LC of HMB from bicarbonate layer) | Enantioselectivity of hydrolysis: Ester (L/D) (Candida rugosa lipase; lipase Candida rugosa, unhydrolyzed ester, chiral LC after 6N HCl hydrolysis) | HMB/HMB-ester ratio for non-enzyme catalyzed hydrolysis [2] | HMB/HMB-ester ratio for Aspergillus niger lipase catalyzed hydrolysis (Aspergillus niger lipase) | extent of ester hydrolysis (in words) [1] | extent of ester hydrolysis (in words) [3] | HMB/HMB-ester ratio for Novo 435 (Candida antarctica) lipase catalyzed hydrolysis [3] | extent of ester hydrolysis (in words) (Candida rugosa lipase) | extent of ester hydrolysis (in words) (Aspergillus niger lipase) | concentration of L-enantiomer relative to D-enantiomer of HMB obtained ([1]; PPL catalyzed hydrolysis, FIG. 7B) | ester hydrolyzed by non-enzymatic hydrolysis ([2]; FIG. 4A) | D- and L-HMB enantiomers obtained through chemical hydrolysis ([2]; non-enzymatic hydrolysis, FIG. 7A) | Enantioselectivity of hydrolysis: Free Acid (L/D) (Aspergillus niger lipase; lipase Aspergillus niger, chiral LC of HMB from bicarbonate layer) | Enantioselectivity of hydrolysis: Ester (L/D) (Aspergillus niger lipase; lipase Aspergillus niger, unhydrolyzed ester, chiral LC after 6N HCl hydrolysis) | conversion of ester to HMB acid (immobilized PPL) [%] | hydrolysis with alginate beads without enzymes [4]
CCOC(=O)C(O)CCSC (centres unmarked) [HMB-ethyl ester, HMB ethyl ester] | 0.94 | 57/43 | 43/57 | 7.84 | 62/38 | 38/62 | 0.53 | 16.71 |  |  |  |  |  |  |  |  |  |  |  | 
COC(=O)C(O)CCSC (centres unmarked) [HMB-methyl ester, HMB methyl ester] | 2.53 |  |  | 62.37 |  |  | 1.45 | 4.55 | partial | near completion | 128 | near completion | partial |  |  |  |  |  |  | 
CCCCOC(=O)C(O)CCSC (centres unmarked) [HMB-butyl ester, HMB butyl ester] | 2.0 | 81/19 | 19/81 | 42.6 |  |  | 0.09 | 160.57 | only partial | Essentially all | 176.3 | Essentially all | Essentially all | nearly four times | less than 1% | equal concentrations |  |  |  | 
CSCCC(O)C(=O)OC(C)C (centres unmarked) [HMB-isopropyl ester, HMB isopropyl ester] | 3.3 |  |  | 9.8 |  |  | 0.36 | 0.81 |  |  | 165 |  |  |  |  |  | 68/32 | 32/68 |  | 
CCCOC(=O)C(O)CCSC (centres unmarked) [HMB-propyl ester, HMB propyl ester] | 1.69 | 75/25 | 22/78 | 84.45 |  |  | 0.09 | 149.24 |  |  | 52.27 |  |  |  |  |  |  |  | 50 | no hydrolysis
